Tested on: HT-29
Assay: Inhibition of Wnt pathway in human HT29 cells after 24 hrs by TCF-driven luciferase reporter gene assay
Assay type: cell-based
Conditions: HT-29, 24 h

Row | Compound | IC50 [nM]
1 | O=C(Nc1ccccc1F)C1CCN(c2ccnc3nsnc23)CC1 | < 5000
2 | O=C(Nc1ccc(C(F)(F)F)cn1)C1CCN(c2ccnc3nsnc23)CC1 | < 50
3 | Cc1ccccc1CNC(=O)C1CCN(c2ccnc3nsnc23)CC1 | < 100
4 | c1ccc(N2C[C@@H]3C[C@H]2CN3c2ccnc3nsnc23)cc1 | < 50
5 | O=C(Nc1cc2ccccc2cn1)C1CCN(c2ccnc3nsnc23)CC1 | < 500
6 | c1ccc(N2C[C@@H]3C[C@H]2CN3c2ncnc3nsnc23)nc1 | < 1000
